Earlier results in patent US20240397950A1, “DISINFECTANT COMPOSITION” (OTSUKA PHARMACEUTICAL FACTORY, INC., priority 2018, published 2024).

N=C(NCCCCCCNC(=N)NC(=N)Nc1ccc(Cl)cc1)NC(=N)Nc1ccc(Cl)cc1.O=C(O)[C@H](O)[C@@H](O)[C@H](O)[C@H](O)CO.O=C(O)[C@H](O)[C@@H](O)[C@H](O)[C@H](O)CO [Chlorhexidine gluconate]
pH at which a dilute aqueous solution causes precipitation: ≥ 8
